According to PubChem BioAssay AID330 (DTP/NCI, 2004):
Values joined by “and” are separate entries in the source; they are usually repeats but may differ in a detail not shown here. Equal entries are not always repeated. Toxic doses and inconclusive results are not listed.

Test system: P388 leukemia ip, CD2F1 mice, survival T/C
Test: NCI In Vivo Anticancer Drug Screen. Data for tumor model P388 Leukemia (intraperitoneal) in CD2F1 (CDF1) mice
Details: endpoint: median survival time, higher = longer survival
Procedure, shortened: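 Mice carrying the transplanted tumor received test compound or vehicle. Survival was recorded in each group, and the value is the treated-group measurement divided by that of the vehicle-treated control group.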

[1] = dose: 400.0 mg/kg/injection, schedule: Q04DX003 (ip), vehicle: saline with Tween-80
[2] = dose: 6.25 mg/kg/injection, schedule: Q04DX003 (ip), vehicle: saline
[3] = dose: 12.5 mg/kg/injection, schedule: Q01DX009 (ip), vehicle: saline
[4] = dose: 50.0 mg/kg/injection, schedule: Q01DX009 (ip), vehicle: saline with Tween-80
[5] = dose: 100.0 mg/kg/injection, schedule: Q01DX009 (ip), vehicle: saline with Tween-80
[6] = dose: 50.0 mg/kg/injection, schedule: Q01DX005 (ip), vehicle: saline with Tween-80
[7] = dose: 100.0 mg/kg/injection, schedule: Q01DX005 (ip), vehicle: saline with Tween-80
[8] = dose: 200.0 mg/kg/injection, schedule: Q01DX005 (ip), vehicle: saline with Tween-80
[9] = dose: 25.0 mg/kg/injection, schedule: Q01DX005 (ip), vehicle: saline with Tween-80

`O=C(Nc1ccc(Nc2ccc(NC(=O)c3ccccc3)c3c2C(=O)c2ccccc2C3=O)c2c1C(=O)c1ccccc1C2=O)c1ccccc1` was tested, and the T/C (dose: 100.0 mg/kg/injection, schedule: Q04DX003 (ip), vehicle: saline with Tween-80) was 95 % of control, the T/C (dose: 200.0 mg/kg/injection, schedule: Q04DX003 (ip), vehicle: saline with Tween-80) was 100 % of control and the T/C [1] was 100 % of control.

For `C=C(OC)C(Nc1cc(OC)c(OC)cc1C(=O)OC1CC(O[C@@H]2C(=O)C(NC(=O)OC)=C3/C(=C\CSSSC)[C@]2(O)C#C/C=C\C#C[C@@H]3OC2OC(C)C(NOC3CC(O)C(SC)C(C)O3)C(O)C2OC2CC(OC)C(NCCC)CO2)OC(C)C1O)OC` (stereo not given in full), the T/C (dose: 1.28 micrograms/kg/injection, schedule: Q01DX005 (ip), vehicle: alcohol) was 163 % of control, the T/C (dose: 2.5 micrograms/kg/injection, schedule: Q01DX005 (ip), vehicle: saline + alcohol) was 88 % of control and the T/C (dose: 2.5 nanograms/kg/injection, schedule: Q01DX005 (ip), vehicle: saline + alcohol) was 120 % of control. For the same compound, the T/C (dose: 2.56 micrograms/kg/injection, schedule: Q01DX005 (ip), vehicle: alcohol) was 155 % of control and 177 % of control, the T/C (dose: 5.0 nanograms/kg/injection, schedule: Q01DX005 (ip), vehicle: saline + alcohol) was 118 % of control and the T/C (dose: 5.12 micrograms/kg/injection, schedule: Q01DX005 (ip), vehicle: alcohol) was 115 % of control. The T/C (dose: 10.0 nanograms/kg/injection, schedule: Q01DX005 (ip), vehicle: saline + alcohol) was 123 % of control, the T/C (dose: 320.0 nanograms/kg/injection, schedule: Q01DX005 (ip), vehicle: saline + alcohol) was 164 % of control and the T/C (dose: 640.0 nanograms/kg/injection, schedule: Q01DX005 (ip), vehicle: saline + alcohol) was 174 % of control. The T/C (dose: 1280.0 nanograms/kg/injection, schedule: Q01DX005 (ip), vehicle: saline + alcohol) was 95 % of control.

`COc1ccc(-c2coc3c4c(ccc3c2=O)OCO4)cc1OC` was tested, and the T/C (dose: 9.75 mg/kg/injection, schedule: Q01DX005 (ip), vehicle: Klucel (hydroxypropylcellulose) (HPC)) was 94 % of control, the T/C (dose: 19.5 mg/kg/injection, schedule: Q01DX005 (ip), vehicle: Klucel (hydroxypropylcellulose) (HPC)) was 94 % of control and the T/C (dose: 39.0 mg/kg/injection, schedule: Q01DX005 (ip), vehicle: Klucel (hydroxypropylcellulose) (HPC)) was 87 % of control. The T/C (dose: 78.0 mg/kg/injection, schedule: Q01DX005 (ip), vehicle: Klucel (hydroxypropylcellulose) (HPC)) was 86 % of control.

`CCOc1c(N=Nc2ccc(C)cc2)c(C)nn1C(=S)SC` was tested, and the T/C (dose: 60.0 mg/kg/injection, schedule: Q01DX005 (ip), vehicle: Klucel + Tween-80) was 100 % of control, the T/C (dose: 120.0 mg/kg/injection, schedule: Q01DX005 (ip), vehicle: Klucel + Tween-80) was 94 % of control and the T/C (dose: 240.0 mg/kg/injection, schedule: Q01DX005 (ip), vehicle: Klucel + Tween-80) was 100 % of control.

`CNC1CCCCC1[N+](C)(C)C` (stereo not given) was tested, and the T/C (dose: 5.0 mg/kg/injection, schedule: Q01DX009 (ip), vehicle: saline sonified) was 95 % of control, the T/C (dose: 10.0 mg/kg/injection, schedule: Q01DX009 (ip), vehicle: saline sonified) was 100 % of control and the T/C (dose: 20.0 mg/kg/injection, schedule: Q01DX009 (ip), vehicle: saline sonified) was 100 % of control.

With `O=C1c2ccccc2C(=O)N1c1ccccc1Br` the T/C (dose: 50.0 mg/kg/injection, schedule: Q01DX005 (ip), vehicle: Klucel (hydroxypropylcellulose) (HPC)) was 100 % of control, the T/C (dose: 100.0 mg/kg/injection, schedule: Q01DX005 (ip), vehicle: Klucel (hydroxypropylcellulose) (HPC)) was 97 % of control and the T/C (dose: 200.0 mg/kg/injection, schedule: Q01DX005 (ip), vehicle: Klucel (hydroxypropylcellulose) (HPC)) was 101 % of control.

`CC1CCC(C)N1P(=O)(N1CC1)N1CC1` (stereo not given) was tested, and the T/C [2] was 108 % of control, the T/C [3] was 110 % of control and the T/C (dose: 25.0 mg/kg/injection, schedule: Q01DX009 (ip), vehicle: saline) was 90 % of control. The T/C (dose: 25.0 mg/kg/injection, schedule: Q04DX003 (ip), vehicle: saline) was 160 % of control and 200 % of control and the T/C (dose: 50.0 mg/kg/injection, schedule: Q04DX003 (ip), vehicle: saline) was 155 % of control.

With `Cc1cc(Nc2ccc(N(C)C)cc2)c2cc(N(C)C)ccc2n1` the T/C [4] was 96 % of control and the T/C [5] was 107 % of control.

With `CC12CCC(O)CC1CCC1C2C(O)CC2(C)C1CCC2(C)O` (stereo not given) the T/C (dose: 100.0 mg/kg/injection, schedule: Q04DX003 (ip), vehicle: alcohol) was 105 % of control, the T/C (dose: 200.0 mg/kg/injection, schedule: Q04DX003 (ip), vehicle: alcohol) was 90 % of control and the T/C (dose: 400.0 mg/kg/injection, schedule: Q04DX003 (ip), vehicle: alcohol) was 115 % of control.

In the case of `C=CCCc1c(OC)cccc1C1=NC(C)(C)CO1`, the T/C [6] is reported as 106 % of control, the T/C [7] is reported as 102 % of control and the T/C [8] is reported as 100 % of control.

`COP(=O)(CI)OC` was tested, and the T/C (dose: 50.0 mg/kg/injection, schedule: Q01DX009 (ip), vehicle: saline) was 102 % of control, the T/C (dose: 100.0 mg/kg/injection, schedule: Q01DX009 (ip), vehicle: saline) was 99 % of control and the T/C (dose: 200.0 mg/kg/injection, schedule: Q01DX009 (ip), vehicle: saline) was 107 % of control.

For `Cc1nc(N)[nH]c(=O)c1CCCNC(=O)c1cccc([N+](=O)[O-])c1`, the T/C (dose: 60.0 mg/kg/injection, schedule: Q01DX005 (ip), vehicle: saline with Tween-80) was 94 % of control, the T/C (dose: 120.0 mg/kg/injection, schedule: Q01DX005 (ip), vehicle: saline with Tween-80) was 100 % of control and the T/C (dose: 240.0 mg/kg/injection, schedule: Q01DX005 (ip), vehicle: saline with Tween-80) was 103 % of control.

In the case of `CNC(=O)OCc1ccccc1-c1ccccc1`, the T/C [4] is reported as 98 % of control, the T/C [5] is reported as 97 % of control and the T/C (dose: 200.0 mg/kg/injection, schedule: Q01DX009 (ip), vehicle: saline with Tween-80) is reported as 95 % of control.

`COc1ccc(C(C)c2cc3c(cc2OCCO)OCO3)cc1O` (stereo not given) was tested, and the T/C (dose: 50.0 mg/kg/injection, schedule: Q01DX005 (ip), vehicle: distilled water + Tween-80) was 97 % of control, the T/C (dose: 100.0 mg/kg/injection, schedule: Q01DX005 (ip), vehicle: distilled water + Tween-80) was 99 % of control and the T/C (dose: 200.0 mg/kg/injection, schedule: Q01DX005 (ip), vehicle: distilled water + Tween-80) was 98 % of control.

`Clc1ccc(C2=NON(c3ccccn3)C3C=CC=CN23)cc1` (stereo not given) was tested, and the T/C [6] was 97 % of control, the T/C [7] was 93 % of control and the T/C [8] was 93 % of control.

In the case of `COc1ccc(S(=O)(=O)NN=C(C(=O)O)C(=O)O)cc1`, the T/C [9] is reported as 102 % of control, the T/C [6] is reported as 102 % of control and the T/C [7] is reported as 95 % of control. For the same compound, the T/C [8] was 109 % of control.

With `Cc1c(N=Nc2cccc(F)c2)c(-c2ccccc2)nn1C(N)=S` the T/C (dose: 12.5 mg/kg/injection, schedule: Q01DX005 (ip), vehicle: saline with Tween-80) was 95 % of control, the T/C [9] was 95 % of control and the T/C [6] was 101 % of control.

For `C[n+]1c2cc(N)ccc2cc2ccc(N)cc21`, the T/C (dose: 3.12 mg/kg/injection, schedule: Q01DX005 (ip), vehicle: suspension in saline) was 121 % of control, the T/C (dose: 6.25 mg/kg/injection, schedule: Q01DX005 (ip), vehicle: suspension in saline) was 117 % of control and the T/C (dose: 6.25 mg/kg/injection, schedule: Q01DX009 (ip), vehicle: saline) was 153 % of control. The T/C [3] was 164 % of control.

With `CCOC(=O)C1C(CCC#N)C(=O)CCC1(C#N)c1ccccc1` (stereo not given) the T/C (dose: 100.0 mg/kg/injection, schedule: Q01DX001 (ip), vehicle: saline) was 105 % of control, the T/C (dose: 200.0 mg/kg/injection, schedule: Q01DX001 (ip), vehicle: saline) was 100 % of control and the T/C (dose: 400.0 mg/kg/injection, schedule: Q01DX001 (ip), vehicle: saline) was 105 % of control.

`CO[C@H]1C[C@H]2CC[C@@]1(C)C2(C)C` was tested, and the T/C (dose: 60.0 mg/kg/injection, schedule: Q01DX005 (ip), vehicle: saline) was 104 % of control, the T/C (dose: 120.0 mg/kg/injection, schedule: Q01DX005 (ip), vehicle: saline) was 104 % of control and the T/C (dose: 240.0 mg/kg/injection, schedule: Q01DX005 (ip), vehicle: saline) was 100 % of control.

`C=CCn1c(=O)n(C)c(=O)c2[nH]c(Cl)nc21` was tested, and the T/C (dose: 16.0 mg/kg/injection, schedule: Q01DX009 (ip), vehicle: Klucel (hydroxypropylcellulose) (HPC)) was 108 % of control, the T/C (dose: 32.0 mg/kg/injection, schedule: Q01DX009 (ip), vehicle: Klucel (hydroxypropylcellulose) (HPC)) was 103 % of control and the T/C (dose: 50.0 mg/kg/injection, schedule: Q01DX009 (ip), vehicle: Klucel (hydroxypropylcellulose) (HPC)) was 110 % of control. The T/C (dose: 64.0 mg/kg/injection, schedule: Q01DX009 (ip), vehicle: Klucel (hydroxypropylcellulose) (HPC)) was 104 % of control and the T/C (dose: 100.0 mg/kg/injection, schedule: Q01DX009 (ip), vehicle: Klucel (hydroxypropylcellulose) (HPC)) was 112 % of control.

`C[C@@H]1CN(C(=O)CCOS(C)(=O)=O)[C@@H](C)CN1C(=O)CCOS(C)(=O)=O` was tested, and the T/C (dose: 3.13 mg/kg/injection, schedule: Q04DX003 (ip), vehicle: saline) was 113 % of control, the T/C [2] was 122 % of control and the T/C (dose: 264.0 mg/kg/injection, schedule: Q04DX003 (ip), vehicle: saline with Tween-80) was 218 % of control. The T/C [1] was 118 % of control.
